Measured values reported in patent US20150157659A1, “METHOD OF INDUCING AUTOPHAGY AND ACTIVATING TOLL-LIKE RECEPTOR” (National Tsing Hua University, priority 2013, published 2015).

Assays:
RAW 264.7 cells [1] = experiment: Immunofluorescence microscopy for Beclin 1 and LC3; assay type: cell-based, mouse
Method: The cells were fixed and permeabilized as described previously, followed by extensive washing and primary antibody staining (1:100 dilution) for 1 h at 4° C. in the dark. The primary antibody was specific for LC3 (4108, Cell Signaling Technology), Beclin 1 (ab55878, Abcam), TLR4 (14-9924, eBioscience), TLR9 (ab17236, abcam), MyD88 (ab2068, abcam), TRAF6 (ab33915, abcam), phosphorylated NF-κB (3033, Cell Signaling Technology) or IRF3 (sc-15991, Santa Cruz Biotechnology). After washing, the cells were incubated with the goat anti-mouse antibody conjugated with Alexa 488 (for TLR9, Invitrogen), goat anti-rabbit antibody conjugated with Alexa 488 (for LC3, MyD88, TRAF6 and NF-κB, Invitrogen) or donkey anti-goat IgG conjugated with Dylight 488 (for IRF3, Jackson ImmunoResearch) for 1 h at 4° C. in the dark. After washing, the cells were counterstained with 4,6-diamidino-2-phenylindole (DAPI, Vector Labs) and visualized with a confocal microscope (Nikon TE2000 equipped with the confocal upgrade laser kit). Fifty to one hundred cells in the images for LC3 were counted for quantification of LC3+ cells.
Beclin 1 and LC3 are two key proteins associated with the autophagy pathway and are common indicators of autophagy induction. […]

RAW 264.7 cells [2] = experiment: Cell death and TUNEL apoptosis of treated macrophages; assay type: cell-based; conditions: LPS 10 μg/ml
RAW 264.7 cells [3] = experiment: Transmission electron microscopy of autophagic vacuoles; assay type: cell-based, mouse; conditions: LPS 10 μg/ml
Method: The cells were harvested, centrifuged (215×g, 10 min), washed with cold PBS and fixed with 2.5% glutaraldehyde (in 0.2 M sodium cacodylate, pH 7.4). The samples were then fixed in 1% OsO4 for 1 h at 4° C., dehydrated with increasing concentrations of ethanol, embedded in spur resin and sectioned. The ultrathin sections were stained with uranyl acetate and observed under the TEM.

RAW 264.7 cells [4] = experiment: ELISA of cytokines in supernatant of treated macrophage cells; assay type: cell-based, mouse; conditions: LPS
Method: At 24 h post-treatment, the supernatant was collected from the GO-treated cell culture and analyzed using ELISA kits specific for mouse IL-2, IL-10, TNF-α, IFN-β and IFN-γ. The cells were lysed for Western blot using primary antibodies (1:1000 dilution) specific for LC3, Beclin 1 or β-actin (A-2066, Sigma) and the secondary antibody was HRP-conjugated IgG (1:5000 dilution, Amersham Biosciences). The images were developed using the GeneGnome HR scanner (Syngene).

RAW264.7 = experiment: Cell morphology and vacuoles under phase contrast microscope after GO treatment; assay type: cell-based, mouse; conditions: LPS 10 μg/ml, 24 h
Method: The mouse macrophage cell line RAW264.7 was maintained in Dulbecco's modified Eagles medium (DMEM, Gibco) containing 10% fetal bovine serum (FBS, Gibco) and subcultured upon 70-80% confluency. For GO treatment, the cells were seeded to 6-well plates (3×10^5 cells/cm^2) overnight and cultured using the medium supplemented with GO at final concentrations of 5 or 100 μg/ml for 24 h. In parallel, the cells were treated with LPS (10 μg/ml, Sigma) for 24 h as the positive control. After the treatment, the cell morphology and vacuoles were observed under the phase contrast microscope.
To examine how GO nanosheets influenced the macrophage, RAW 264.7 cells were incubated with small GO at either 5 μg/ml (designated as GO5 group) or 100 μg/ml (designated as GO100 group) for 24 h.

Row | Compound | GO100-triggered formation of LC3+ aggregate dots (RAW 264.7 cells [1]; pre-treatment of cells with the autophagy inhibitor) | cell death (RAW 264.7 cells [2]) | Beclin 1 and LC3 dots by immunofluorescence (RAW 264.7 cells [1]; LPS-treated cells) | autophagic vacuoles (AV) by TEM (RAW 264.7 cells [3]) | cytokine secretion (RAW 264.7 cells [4]) | formation of vacuoles inside the cells (RAW264.7)
1 | Cn1cnc(N)c2ncnc1-2 [3-MA, 3-methyl adenine] | diminished the GO100-triggered formation of LC3+ aggregate dots | – | – | – | – | –
2 | lipopolysaccharides [LPS] | – | also observed in the LPS-treated cells | also observed in the LPS-treated cells | triggered more prominent AV | cytokine secretion triggered by LPS | also observed in the LPS-treated cells
